Experimental data reported in US20050048105A1, “Protease inhibitor compositions for prevention and treatment of skin conditions” (priority 2003, published 2005).
Read-outs that look alike come from different tables or passages of the source.

Columns and labels:
protease = experiment: Protease inhibition activity of inhibitor solutions and lotions, fresh and after storage; format: biochemical; conditions: for initial protease inhibition activity: freshly prepared preparation; for decrease of inhibitory activity after storage of solution: one month at room temperature, vs fresh solution
Method: (§1) The inventor selected glycine soja and DPHP by testing numerous potential inhibitors in vitro to assess their activity against protease enzymes. A protease enzyme present in feces or urine, such as trypsin, chymotrypsin, or elastase, was placed in contact with a substrate (crosslinked albumin, sulfaniloazo-albumin and gelatin). Separately, the protease (trypsin, chymotrypsin or elastase) was incubated with a protease inhibitor and then this combination was placed in contact with the substrate. The substrate-protease or substrate-protease-protease inhibitor combination was then left to incubate.
(§2) At a defined time, the incubation was stopped by the addition of NaOH. Color was developed and read at OD 450. The intensity of the color developed was directly proportional to the amount of substrate digested by the protease.
Using the above methods, two protease inhibitors mentioned by the prior art were tested. […] However, they were left for one month and then tested for activity. After one month at room temperature, the activity of the stabilized AEBSF solution was decreased by 42%.

chymotrypsin = chymotrypsin (Bos taurus, UniProt P00766); experiment: In vitro protease substrate digest with chymotrypsin; format: biochemical
Method: as §1, §2

[1] = shown by the manufacturer; cited from earlier work
elastase [2] = experiment: Back digest of albumin/gelatin dye substrate by elastase (FIG. 4); format: biochemical
Method: as §1
At a defined time, the incubation was stopped by the addition of NaOH. Color was developed and read at OD 450. […]
(§3) The substrate used was a crosslinked albumin, sulfaniloazo-albumin and gelatin at a slightly acidic pH. […] This color development can be measured spectrophotometrically at OD 450 and the OD value is proportional to enzymatic activity. […] The OD 450 reading is directly proportional to the enzyme activity (i.e. the higher the value, the higher the enzyme activity).
(§4) A back digest was conducted when particulate suspensions were used as either enzyme or enzyme inhibitor or when lotions were being tested, because the particulate interferes with the OD readings. […] Color development was read at OD 450. […]

elastase [3] = conditions: studies by the manufacturer (Seppic); cited from earlier work
trypsin = target: T1, trypsin (Bos taurus, UniProt P00760); experiment: Back digest of albumin/gelatin dye substrate by trypsin (FIGS. 2 and 4); format: biochemical
T1 construct: gene PRSS1
T1 sequence (P00760 24-246): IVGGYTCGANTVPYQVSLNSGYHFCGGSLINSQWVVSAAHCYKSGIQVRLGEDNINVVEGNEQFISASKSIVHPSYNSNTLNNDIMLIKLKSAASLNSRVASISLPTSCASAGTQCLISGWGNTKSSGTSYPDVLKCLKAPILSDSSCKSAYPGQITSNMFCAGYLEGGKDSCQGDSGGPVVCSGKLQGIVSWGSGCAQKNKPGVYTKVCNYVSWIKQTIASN
Method: as §1, §2
A back digest was performed with a spectrally active protease substrate, trypsin, and either DPHP or glycine soja. Trypsin was incubated with either DPHP or glycine soja, and for the control, neither DPHP nor glycine soja was used. The trypsin or trypsin+either DPHP or glycine soja was then placed in contact with a substrate, the results of which are shown in FIGS. 3 and 4.
as §3, §4
After an initial digest, the supernatant was decanted, and an excess of trypsin was added for further digestion of the substrate. After this final digest, supernatant optical density (OD) was read at 450 nm. […]

[4] = listed as dipalmitoyl hydroxyproline
[5] = DPHP material itself, back digest, FIG. 4

Row | SMILES | initial protease inhibition activity (protease) | decrease of inhibitory activity after storage of solution (protease) | inhibition of chymotrypsin (in words) (chymotrypsin) | inhibition of chymotrypsin (in words) (chymotrypsin; [4]) | inhibition of free radicals (manufacturer) [1] | inhibition of elastase (in words) (elastase [2]) | change in elastase activity (elastase [2]; [5]) | inhibition of elastase (manufacturer) (elastase [3]) | inhibition of trypsin (in words) (trypsin) | change in trypsin activity (trypsin; [5]) | inhibition of trypsin (in words) (trypsin; [4])
1 | Cl.NCCc1ccc(S(=O)(=O)F)cc1 [AEBSF, 4-(2-aminoethyl)-benzenesulfonylfluoride hydrochloride] | very high protease inhibition activity | 42% | – | – | – | – | – | – | – | – | –
2 | CCCCCCCCCCCCCCCC(=O)O[C@@H]1C[C@@H](C(=O)O)N(C(=O)CCCCCCCCCCCCCCC)C1 [DPHP, dipalmitoyl hydroxyproline] | – | – | does inhibit | potent inhibitors | potent inhibitor of free radicals | does inhibit | −22% | potent inhibitor of elastase | does inhibit | −33% | potent inhibitors
3 | N=C(N)c1ccc(OCCCCCCOc2ccc(C(=N)N)cc2)cc1.O=S(=O)(O)CCO.O=S(=O)(O)CCO [Elestab, hexamidine diisethionate] | very high protease inhibition activity | about 37% | – | – | – | – | – | – | – | – | –
